Drawing on patent publication US20230322722A1, “MODULATORS OF MYC FAMILY PROTO-ONCOGENE PROTEIN” (Nalo Therapeutics, priority 2020, published 2023), this text covers inhibition for 17 compounds.

A value given as a limit tells only on which side of the number the result lay.

One experiment has as its target T1, MycC protein (Homo sapiens, UniProt P01106).
T1 construct: either 2×10^6 of L-363 (human leukemia cell line) or SKNBE2 (neuroblastoma cell line) cells; endogenous in cells; host or cells: L-363 / L363 human leukemia cells
In words: Degradation of MycC protein, Western blot, L-363 cells (Example 160). The class given is cell-based. Conditions: 6 h. The procedure:
(§1) In a T150 flask was plated either 2×10^6 of L-363 (human leukemia cell line) or SKNBE2 (neuroblastoma cell line) cells in a total of 30 mL containing Roswell Park Memorial Institute (RPMI) 1640 Medium (Thermo Fisher, Cat. #11875-085), 10% Fetal Bovine Serum (FBS, Thermo Fisher: Cat. #10437-028), 1% Penicillin/streptomycin (Thermo Fisher: Cat. #10378016), and 1% Amophotericin B (Thermo Fisher, Cat. #15290026). The cells were split every 72 hours by reseeding the L-363 or SKNBE2 cells, and the passage number was noted. It is noteworthy that cell cultures that were above 40 passages were not used, and most experiments were done with cells of less than 30 passages.
(§2) In a 6-well cell culture plate, a total of 3 mL of either 1×10^6 cells/mL of L-363 or SKNBE2 cells were seeded, resulting in a total of 3×10^6 cells per well. To each well containing 3 mL of either L-363 or SKNBE2 cell line was added 6 uL of MycN modulating compound (1 mM) and the resulting plate was shaken from left to right, and not swirled. After 6 hours, the cells were placed in a 15 mL falcon tube and spun at 500 Gs at 4° C. in a swinging bucket centrifuge. The medium was then carefully removed without disturbing the pellet. The pellet was then washed with 3 mLs of chilled phosphate buffered saline (PBS) and subjected to the spin cycle. PBS was then removed and the pellet was lysed in 200 uL of radioimmunoprecipitation (RIPA) lysis buffer (Thermo Fisher: Cat. #899000) that is supplemented with protease and phosphatase inhibitors (Thermo Fisher: Cat. #A32959). The cell lysate was then subjected to spinning in a centrifuge for 10 minutes at 13000 G at 4° C. The supernatant was then carefully transferred to a fresh eppendorf tube without disturbing the pellet (˜180 uL). The protein concentration of the cell lysate was then determined by using a bicinchoninic acid (BCA assay) according to manufacturer's protocol (Thermo Fisher: Cat. #23227).
(§3) Cell lysate, approximately 25 ug-30 ug, was loaded per well in a 4-20% polyacrylamide gel (Biorad. Cat. #5671094). After running the dye front off of the gel, the gel was transferred to a nitrocellulose membrane (Biorad: Cat. #1704159) using the transblot turbo system (Biorad: Cat. #1704150) according to manufacturer's protocol. After transferring for 30 minutes, the membrane was blocked with 5% BSA for 1 hour at room temperature. The BSA was then washed off and the primary antibody of choice (1:500) was added, and the membrane was incubated with the primary antibody at 4° C. for overnight. The next morning, the primary antibody was removed and the membrane was washed with 1×-TBST for 10 minutes and repeated three more times. Following the last wash, a secondary antibody (Molecular Devices. Cat. #R8209 or R8208) was added at 1:5000 dilution and incubated for 1 hour at room temperature. Following the incubation with the secondary antibody, the membrane was washed with 1×-TBST for 10 minutes and repeated three more times. Following the last wash, the membrane was washed with de-ionized water twice and dried for at least two hours. Once the membrane is completely dry, the Molecular Devices Spectra Max western system was used to observe the bands. The western image was saved and the band density was measured with ImageJ software.
In general terms: A western blot detects proteins with antibodies after separation by electrophoresis.

In a further experiment the target is T2, MycN protein (Homo sapiens, UniProt P04198).
T2 construct: either 2×10^6 of L-363 (human leukemia cell line) or SKNBE2 (neuroblastoma cell line) cells; endogenous in cells; host or cells: SKNBE2 / SK-N-BE(2) neuroblastoma cells
T2 sequence (P04198 1-464): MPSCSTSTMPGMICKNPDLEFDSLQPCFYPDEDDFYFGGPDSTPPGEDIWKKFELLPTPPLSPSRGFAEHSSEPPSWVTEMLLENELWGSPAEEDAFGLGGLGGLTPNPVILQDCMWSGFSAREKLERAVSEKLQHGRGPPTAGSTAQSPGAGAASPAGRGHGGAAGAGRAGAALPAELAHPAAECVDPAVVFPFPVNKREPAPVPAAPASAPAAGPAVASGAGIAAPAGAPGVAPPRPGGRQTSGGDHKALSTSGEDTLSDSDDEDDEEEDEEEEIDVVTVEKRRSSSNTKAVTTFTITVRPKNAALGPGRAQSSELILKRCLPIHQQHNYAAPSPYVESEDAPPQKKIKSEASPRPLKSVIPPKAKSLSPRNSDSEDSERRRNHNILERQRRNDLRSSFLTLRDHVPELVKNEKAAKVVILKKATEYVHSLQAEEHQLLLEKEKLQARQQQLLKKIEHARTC
In words: Degradation of MycN protein, Western blot, SKNBE2 cells (Example 160). The class given is cell-based. The procedure:
as §1, §2, §3

T1 sequence (P01106 whole entry): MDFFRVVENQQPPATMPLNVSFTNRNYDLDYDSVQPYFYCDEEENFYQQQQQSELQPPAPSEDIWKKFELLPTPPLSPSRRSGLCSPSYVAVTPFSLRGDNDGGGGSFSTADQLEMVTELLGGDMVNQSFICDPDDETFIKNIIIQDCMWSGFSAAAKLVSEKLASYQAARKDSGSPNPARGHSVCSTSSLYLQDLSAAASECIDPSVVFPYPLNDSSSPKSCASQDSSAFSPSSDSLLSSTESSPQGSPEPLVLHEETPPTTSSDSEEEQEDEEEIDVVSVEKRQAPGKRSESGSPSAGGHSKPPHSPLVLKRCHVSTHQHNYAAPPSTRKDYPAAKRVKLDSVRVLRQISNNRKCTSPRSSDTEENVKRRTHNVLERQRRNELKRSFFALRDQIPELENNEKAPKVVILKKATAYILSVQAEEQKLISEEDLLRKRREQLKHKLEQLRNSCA

In the case of `CN(c1nccc(Nc2cc(C3CC3)[nH]n2)n1)C1CCN(CC(=O)Nc2cccc(S(C)(=O)=O)c2)CC1` [Compound 3, 2-(4-((4-((5-cyclopropyl-1H-pyrazol-3-yl)amino)pyrimidin-2-yl)(methyl)amino)piperidin-1-yl)-N-(3-(methylsulfonyl)phenyl)acetamide], the inhibition – broadly, how much of the control response was suppressed – at 2 µM against MycC protein fell in the range of 80 to 100%; against MycN protein (SKNBE2, 6 h), 50 to 79%.
For `CN(c1cc(C2CC2)[nH]n1)c1ccnc(N(C)C2CCN(CC(=O)Nc3cccc(C(F)(F)F)c3)CC2)n1` [Compound 4, 2-(4-((4-((5-cyclopropyl-1H-pyrazol-3-yl)(methyl)amino)pyrimidin-2-yl)(methyl)amino)piperidin-1-yl)-N-(3-(trifluoromethyl)phenyl)acetamide] the same measures were 20 to 49% and less than 20%.
Regarding `CS(=O)(=O)c1cccc(NC(=O)CN2CCC(Nc3nccc(Nc4cc(C5CC5)[nH]n4)n3)CC2)c1` [Compound 6, 2-(4-((4-((5-cyclopropyl-1H-pyrazol-3-yl)amino)pyrimidin-2-yl)amino)piperidin-1-yl)-N-(3-(methylsulfonyl)phenyl)acetamide], the inhibition at 2 µM is 80 to 100% at MycC protein and 50 to 79% at MycN protein (6 h).
For `CN(c1nccc(Nc2cc(C3CC3)[nH]n2)n1)C1CCN(CC(=O)Nc2cn(C)nn2)CC1` [Compound 8, 2-(4-((4-((5-cyclopropyl-1H-pyrazol-3-yl)amino)pyrimidin-2-yl)(methyl)amino)piperidin-1-yl)-N-(1-methyl-1H-1,2,3-triazol-4-yl)acetamide], the inhibition at 2 µM against MycC protein was in the range of 80 to 100%; against MycN protein (SKNBE2, 6 h) it was 50 to 79%.
Regarding `CC(C(=O)Nc1cccc(S(C)(=O)=O)c1)N1CCC(N(C)c2nccc(Nc3cc(C4CC4)[nH]n3)n2)CC1` (stereo not shown) [Compound 9], the inhibition at 2 µM against MycC protein and at MycN protein (6 h) was 80 to 100% in each case.
For the compound `CN(c1nccc(Nc2cc(C3CC3)[nH]n2)n1)C1CCN(CC(=O)Nc2cn(C3COC3)cn2)CC1` [Compound 10, 2-(4-((4-((5-cyclopropyl-1H-pyrazol-3-yl)amino)pyrimidin-2-yl)(methyl)amino)piperidin-1-yl)-N-(1-(oxetan-3-yl)-1H-imidazol-4-yl)acetamide], the inhibition at 2 µM on MycC protein lay in the range of 80 to 100%; against MycN protein (SKNBE2, 6 h) it was 50 to 79%.
Consider `CN(c1nccc(Nc2cc(C3CC3)[nH]n2)n1)[C@H]1CC[C@H](NC(=O)N2Cc3cc(F)c(F)cc3C2)CC1` [Compound 12, N-((1R,4R)-4-((4-((5-cyclopropyl-1H-pyrazol-3-yl)amino)pyrimidin-2-yl)(methyl)amino)cyclohexyl)-5,6-difluoroisoindoline-2-carboxamide], for which the inhibition at 2 µM at MycC protein was 80 to 100%; at MycN protein (SKNBE2, 6 h), 50 to 79%.
With `CN(c1nccc(Nc2cc(C3CC3)[nH]n2)n1)[C@H]1CC[C@H](NC(=O)N2CCc3cc(F)c(F)cc3C2)CC1` [Compound 13, N-((1R,4R)-4-((4-((5-cyclopropyl-1H-pyrazol-3-yl)amino)pyrimidin-2-yl)(methyl)amino)cyclohexyl)-6,7-difluoro-3,4-dihydroisoquinoline-2(1H)-carboxamide], the inhibition at 2 µM lay within 80 to 100% against MycC protein and 50 to 79% against MycN protein (SKNBE2, 6 h).
For `CN(c1nccc(Nc2cc(C3CC3)[nH]n2)n1)[C@H]1CC[C@H](NC(=O)N2CCn3nc(C(F)(F)F)nc3C2)CC1` [Compound 14, N-((1R,4R)-4-((4-((5-cyclopropyl-1H-pyrazol-3-yl)amino)pyrimidin-2-yl)(methyl)amino)cyclohexyl)-2-(trifluoromethyl)-5,6-dihydro-[1,2,4]triazolo[1,5-a]pyrazine-7(8H)-carboxamide], in that order: 80 to 100% and 80 to 100%.
For `Cc1cnc(CC(=O)NC2CCC(N(C)c3nccc(Nc4cc(C5CC5)[nH]n4)n3)CC2)cn1` [Compound 108, N-((1R,4R)-4-((4-((5-cyclopropyl-1H-pyrazol-3-yl)amino)pyrimidin-2-yl)(methyl)amino)cyclohexyl)-2-(5-methylpyrazin-2-yl)acetamide], in that order: 80 to 100% and 50 to 79%.
For `CN(c1cc(C2CC2)[nH]n1)c1ccnc(N(C)[C@H]2CC[C@H](NC(=O)C3CCc4ccccc43)CC2)n1` (stereo partly drawn) [Compound 109, N-((1R,4R)-4-((4-((5-cyclopropyl-1H-pyrazol-3-yl)(methyl)amino)pyrimidin-2-yl)(methyl)amino)cyclohexyl)-2,3-dihydro-1H-indene-1-carboxamide], in that order: 50 to 79% and less than 20%.
With `CN(c1cc(C2CC2)[nH]n1)c1ccnc(N(C)[C@H]2CC[C@H](NC(=O)C3Cc4ccccc4C3)CC2)n1` [Compound 110, N-((1R,4R)-4-((4-((5-cyclopropyl-1H-pyrazol-3-yl)(methyl)amino)pyrimidin-2-yl)(methyl)amino)cyclohexyl)-2,3-dihydro-1H-indene-2-carboxamide], the inhibition at 2 µM against MycC protein is 20 to 49%; on MycN protein (SKNBE2, 6 h), less than 20%.
For `Cn1nc(Nc2ccnc(N(C)[C@H]3CC[C@H](NC(=O)C4Cc5ccccc5C4)CC3)n2)cc1C1CC1` [Compound 111, N-((1R,4R)-4-((4-((5-cyclopropyl-1-methyl-1H-pyrazol-3-yl)amino)pyrimidin-2-yl)(methyl)amino)cyclohexyl)-2,3-dihydro-1H-indene-2-carboxamide], in that order: less than 20% and 20 to 49%.
On to `CN(c1nccc(Nc2cc(C3CC3)[nH]n2)n1)[C@H]1CC[C@H](NC(=O)C2CCc3ccccc32)CC1` (stereo partly drawn) [Compound 112, N-((1R,4R)-4-((4-((5-cyclopropyl-1H-pyrazol-3-yl)amino)pyrimidin-2-yl)(methyl)amino)cyclohexyl)-2,3-dihydro-1H-indene-1-carboxamide], for which the inhibition at 2 µM against MycC protein is 80 to 100%; on MycN protein (SKNBE2, 6 h), 50 to 79%.
For `CN(c1nccc(Nc2cc(C3CC3)[nH]n2)n1)[C@H]1CC[C@H](NC(=O)Cc2cccc(S(C)(=O)=O)c2)CC1` [Compound 115, N-((1R,4R)-4-((4-((5-cyclopropyl-1H-pyrazol-3-yl)amino)pyrimidin-2-yl)(methyl)amino)cyclohexyl)-2-(3-(methylsulfonyl)phenyl)acetamide], in that order: 50 to 79% and less than 20%.
Take `CN(c1nccc(Nc2cc(C3CC3)[nH]n2)n1)[C@H]1CC[C@H](NC(=O)C2(C)CCOCC2)CC1` [Compound 116, N-((1R,4R)-4-((4-((5-cyclopropyl-1H-pyrazol-3-yl)amino)pyrimidin-2-yl)(methyl)amino)cyclohexyl)-4-methyltetrahydro-2H-pyran-4-carboxamide]: the inhibition at 2 µM is 80 to 100% against MycC protein and less than 20% against MycN protein (SKNBE2, 6 h).
For `CN(c1nccc(Nc2cc(C3CC3)[nH]n2)n1)[C@H]1CC[C@H](NC(=O)c2cn3ccccc3n2)CC1` [Compound 117, N-((1R,4R)-4-((4-((5-cyclopropyl-1H-pyrazol-3-yl)amino)pyrimidin-2-yl)(methyl)amino)cyclohexyl)imidazo[1,2-a]pyridine-2-carboxamide] the same measures were 80 to 100% and 80 to 100%.
